Measured values published in patent US11718628B2, “SREBP inhibitors comprising a 6-membered central ring” (Capulus Therapeutics, LLC, priority 2018, dated 2023).
≈ marks a conversion by molar mass, not a printed value.

Tests used:
[1] = Half-life in mouse liver microsomes; type: in vitro ADME; details: mouse, liver microsomes, read-out: H: half-life of mouse liver microsomes
Description: (§1) Half-life Human Microsomes: Compounds were evaluated for stability in human liver microsomes. A 10 mM stock solution of the compound being evaluated was prepared in DMSO and diluted with water:acetonitrile (1:1) to a concentration of 1 mM. A working concentration of 100 μM was prepared by further dilution with water:acetonitrile (1:1). To make the preincubation mixture, 2.5 μL of the diluted compound was combined with 75 μL of human liver microsomes at 3.33 mg/mL, and 85 μL of 100 mM potassium phosphate buffer, and this mixture was pre-incubated for 10 min at 37° C. To make the 60 minute mixture without cofactor, 32.5 μL of the preincubation mixture was combined with 17.5 μL of 100 mM potassium phosphate buffer and incubated for 60 min at 37° C. To make the 0 min sample with cofactor (NADPH), 16.25 μL of the preincubation mixture was combined with 200 μL of acetonitrile containing internal standard and 8.75 μL of cofactor (NADPH). To make the incubation mixture, 62 μL of cofactor (2.85 mM) was combined with the remaining incubation mixture, and incubated for 60 min at 37° C. To prepare the sample mixture to be evaluated, 25 μL incubation mixture was combined with 200 μL of acetonitrile containing internal standard and vortexed for 5 min at 1200 rpm, then centrifuged for 10 min at 4000 rpm. The supernatant was diluted 2 fold with water and injected on LC-MS/MS. The sample mixture was evaluated by LC-MS/MS using 10 mM ammonium acetate with 0.1% FA as the aqueous mobile phase, and methanol as the organic mobile phase.
Half-life Mouse Microsomes: Compounds were evaluated in mouse liver microsomes following a similar procedure as described above for human liver microsomes. A similar procedure could be used to evaluate compounds in rat liver microsomes.

[2] = Half-life in human liver microsomes; type: in vitro ADME; details: human, liver microsomes, NADPH, 37° C., read-out: G: half-life human liver microsomes
Description: as §1

Kinetic solubility = type: physicochemical; details: aqueous buffer, kinetic from dmso stock, pH 7.4 buffer, room temperature, 1.0% DMSO, read-out: I: kinetic solubility class
Description: Kinetic Solubility Procedure: A 10 mM stock solution of a compound was prepared in DMSO, then 4 μL of the stock was added to a deep well plate containing 396 μL of pH 7.4 buffer. The sample plate was vortexed at 800 rpm for 24 h on thermomixer at room temperature. The plate was sealed well during the incubation process. The DMSO content in the sample was 1.0%. The concentration of the evaluated compound in the final incubation was 100 μM. At the end of the incubation period, the sample plate was centrifuged at 4000 rpm for 10 min and analyzed in LC-UV against a calibration curve (CC). Values <10 μg/mL=Low; 10 to 60 μg/mL=Medium; >60 μg/mL=High.

Compound	half-life at 1 µM [1] [h]	half-life at 1 µM [2] [min]	solubility kinetic at 24 h (Kinetic solubility) [µg/mL]
CC(C)(C)c1cc(-c2cncc(-c3cc(C(=O)N4CCC(O)CC4)ccc3Cl)c2)ccn1	31	2.62	10 to 60 (≈ 22.2 to 133 µM)
Cc1cc(S(=O)(=O)NC(C)C)ccc1-c1cncc(-c2ccnc(C(C)(C)C)c2)c1	2.95	1.69	10 to 60 (≈ 23.6 to 142 µM)
CC(C)NS(=O)(=O)Nc1ccc(-c2cncc(-c3ccnc(C(C)(C)C)c3)c2)c(Cl)c1	2.97	27.3	10 to 60 (≈ 21.8 to 131 µM)
Cc1c(-c2ccnc(C(C)(C)C)c2)cncc1-c1ccc(C(=O)N2CCCC(O)C2)cc1Cl (stereo not drawn)	0.425	11.3	< 10
CC(C)(CNC(=O)c1ccc(-c2cncc(-c3ccnc(C(C)(C)C)c3)c2)c(Cl)c1)C(=O)O	0.163	2.98	10 to 60 (≈ 21.5 to 129 µM)
CC(C)(C)c1cc(-c2cc(-c3ccc(C(=O)N4CCC(O)CC4)cc3Cl)cc3cnccc23)ccn1	0.563	11.4	10 to 60 (≈ 20 to 120 µM)
CC(C)(C)c1cc(-c2cc(-c3ccc(C(=O)N4CCC(O)CC4)cc3Cl)c3ccncc3c2)ccn1	1.8	119	10 to 60 (≈ 20 to 120 µM)
CC(C)(C)c1cc(-c2cncc(-c3ccc(NC(=O)OC4CCNCC4)cc3Cl)c2)ccn1	18.2	1.78	< 10
CC1(c2cc(-c3cncc(-c4ccc(C(=O)N5CCC(O)CC5)cc4Cl)c3)ccn2)OCCO1	1.68	9.74	10 to 60 (≈ 20.8 to 125 µM)
CC(C)(C)c1cc(-c2cc(-c3ccc(C(=O)N4CCC(O)CC4)cc3Cl)cc3ncccc23)ccn1	0.17	19	< 10
CC(C)(C)c1cc(-c2cc(-c3ccc(C(=O)N4CCC(O)CC4)cc3Cl)c3cccnc3c2)ccn1	0.322	2.07	< 10
Cc1c(-c2ccnc(C(C)(C)C)c2)cncc1-c1ccc(C(=O)N2CCC(O)CC2)cc1Cl	0.325	3.21	10 to 60 (≈ 21.6 to 129 µM)
CN(C)c1cc(-c2ccnc(C(C)(C)C)c2)cc(-c2ccc(C(=O)N3CCC(O)CC3)cc2Cl)c1	0.227	20.7	< 10
CC(C)(C)c1cc(-c2cc(C#N)cc(-c3ccc(C(=O)N4CCC(O)CC4)cc3Cl)c2)ccn1	1.98	16.1	< 10
CC(C)(C)c1cc(-c2cc(F)cc(-c3ccc(C(=O)N4CCC(O)CC4)cc3Cl)c2)ccn1	0.227	74.6	< 10
O=C(c1ccc(-c2cncc(-c3ccnc4c3CCC4)c2)c(Cl)c1)N1CCC(O)CC1	0.457	9.79	10 to 60 (≈ 23 to 138 µM)
CC(C)(C)c1cc(-c2cncc(-c3ccc(NC(=O)OC4CCC(O)CC4)cc3Cl)c2)ccn1 (stereo not drawn)	2	31.3	< 10
CC(C)(C)c1cc(-c2cncc(-c3ccc(C(=O)N4CC5C(O)C5C4)cc3Cl)c2)ccn1 (stereo not drawn)	0.333	3.17	10 to 60 (≈ 22.3 to 134 µM)
CC(C)(C)c1cc(-c2cncc(-c3ccc(NC(=O)N4CCC(O)CC4)cc3Cl)c2)ccn1	> 2	19.6	< 10
O=C(c1ccc(-c2cncc(-c3ccnc(C4CC4)c3)c2)c(Cl)c1)N1CCC(O)CC1	0.915	36.5	10 to 60 (≈ 23 to 138 µM)

Compound	half-life at 1 µM [1] [h]	half-life at 1 µM [2] [min]	solubility kinetic at 24 h (Kinetic solubility) [µg/mL]
CC(C)(C)c1cc(-c2cncc(-c3ccc(NS(=O)(=O)CC(F)(F)F)cc3Cl)c2)ccn1	> 2	6.03	< 10
CC1(O)CCC(C(=O)c2ccc(-c3cncc(-c4ccnc(C(C)(C)CO)c4)c3)c(Cl)c2)CC1 (stereo not drawn)	1.06	10	10 to 60 (≈ 20.9 to 125 µM)
CC(C)(CO)c1cc(-c2cncc(-c3ccc(NS(C)(=O)=O)cc3Cl)c2)ccn1	> 2	6.5	< 10
CC(C)OC(=O)Nc1ccc(-c2cncc(-c3ccnc(C(C)(C)CO)c3)c2)c(Cl)c1	1.46	21.5	< 10
CC(C)(C)c1cc(-c2cncc(-c3ccc(C(=O)N4CC5CCC(C4)C5O)cc3Cl)c2)ccn1 (stereo not drawn)	0.355	15.4	< 10
CC(C)(C)c1cc(-c2cncc(-c3ccc(C(=O)N4CC(O)C(O)C4)cc3Cl)c2)ccn1 (stereo not drawn)	1.26	29.4	10 to 60 (≈ 22.1 to 133 µM)
CC(C)(C)c1cc(-c2cncc(-c3ccc(C(=O)N4C[C@@H](O)[C@@H](O)C4)cc3Cl)c2)ccn1	0.603	27.1	10 to 60 (≈ 22.1 to 133 µM)
CC(C)(C)c1cc(-c2cncc(-c3ccc(C(=O)N4CC(CO)C4)cc3Cl)c2)ccn1	0.442	1.74	10 to 60 (≈ 22.9 to 138 µM)
CC(C)(C)c1cc(-c2cncc(-c3ccc(C(=O)N4CC(O)C4)cc3Cl)c2)ccn1	0.638	2.01	10 to 60 (≈ 23.7 to 142 µM)
CC(C)(C)c1cc(-c2cccc(-c3ccc(NS(=O)(=O)C(F)(F)F)cc3Cl)c2F)ccn1	1.35	0.54	10 to 60 (≈ 20.5 to 123 µM)
CC(C)(C)c1cc(-c2cccc(-c3ccc(NS(C)(=O)=O)cc3Cl)c2)ccn1	1.83	90.8	< 10
CC(C)(C)c1cc(-c2cccc(-c3ccc(NS(C)(=O)=O)cc3Cl)c2F)ccn1	3.43	16.4	< 10
CC(C)(C)c1cc(-c2cccc(-c3ccc(C(=O)N4CCC(O)CC4)cc3Cl)c2F)ccn1	0.672	16.3	< 10
CC(C)(C)c1cc(-c2cccc(-c3ccc(C(=O)NS(=O)(=O)C4CC4)cc3Cl)c2)ccn1	1.11	12.1	10 to 60 (≈ 21.3 to 128 µM)
CC(C)(C)c1cc(-c2cccc(-c3ccc(NS(=O)(=O)CC(F)(F)F)cc3Cl)c2)ccn1	> 2	> 120	< 10
CC(C)(C)c1cc(-c2cccc(-c3ccc(NC(=O)N4CCC(O)CC4)cc3Cl)c2)ccn1	6.67	72.1	< 10
CC(C)(C)c1cc(-c2cncc(-c3ccc(C(=O)N4CCC(O)CC4)cc3)c2F)ccn1 [drawing 321]	1.38	126	10 to 60 (≈ 23.1 to 138 µM)
Cc1cc(C(=O)N2CCC(O)CC2)ccc1-c1cncc(-c2ccnc(C(C)(C)C)c2)c1 [drawing 337]	3.55	13.9	10 to 60 (≈ 23.3 to 140 µM)
CC(C)(C)c1cc(-c2cncc(-c3ccc(NS(C)(=O)=O)cc3Cl)c2)ccn1 [drawing 346]	0.993	19.8	< 10
CC(C)(O)c1cc(-c2cncc(-c3ccc(C(=O)N4CCC(O)CC4)cc3Cl)c2)ccn1 [drawing 356]	48.7	541	10 to 60 (≈ 22.1 to 133 µM)
